According to patent publication US20060189608A1, “Methods for treating ocular angiogenesis, retinal edema, retinal ischemia, and diabetic retinopathy using selective RTK inhibitors” (Alcon, Inc., priority 2005, published 2006):

Key:
[1] = tested on: laser-induced choroidal neovascularization (CNV); assay: Prevention of laser-induced CNV, intravitreal injection, mouse; assay type: in vivo, C57BL/6J mice; details: for inhibition of CNV as compared to vehicle-injected eyes: 5 ul intravitreal immediately after laser, 14 days post-laser
Experimental: Methods. CNV was generated by laser-induced rupture of Bruch's membrane. Briefly, 4 to 5 week old male C57BL/6J mice were anesthetized using intraperitoneal administration of ketamine hydrochloride (100 mg/kg) and xylazine (5 mg/kg) and the pupils of both eyes dilated with topical ocular instillation of 1% tropicamide and 2.5% Mydfin®. One drop of topical cellulose (Gonioscopic®) was used to lubricate the cornea. A hand-held cover slip was applied to the cornea and used as a contact lens to aid visualization of the fundus. Three to four retinal burns were placed in randomly assigned eye (right or left eye for each mouse) using the Alcon 532 nm EyeLite laser with a slit 5 lamp delivery system. The laser burns were used to generate a rupture in Bruch's membrane, which was indicated ophthalmoscopically by the formation of a bubble under the retina. Only mice with laser burns that produced three bubbles per eye were included in the study. Bums were typically placed at the 3, 6, 9 or 12 o'clock positions in the posterior pole of the retina, avoiding the branch retinal arteries and veins.
Each mouse was randomly assigned into one of the following treatment groups: noninjected controls, sham-injected controls, vehicle-injected mice, or one of three RTKi-injected groups. Control mice received laser photocoagulation in both eyes, where one eye received a sham injection, i.e. a pars plana needle puncture. […] The intravitreal injection was performed immediately after laser photocoagulation. At 14 days post-laser, all mice were anesthetized and systemically perfused with fluorescein-labeled dextran. Eyes were then harvested and prepared as choroidal flat mounts with the RPE side oriented towards the observer. All choroidal flat mounts were examined using a fluorescent microscope. Digital images of the CNV were captured, where the CNV was identified as areas of hyperfluorescence within the pigmented background. Computerized image analysis was used to delineate and measure the two dimensional area of the hyperfluorescent CNV per lesion (um^2) for the outcome measurement. The median CNV area/burn per mouse per treatment group or the mean CNV area/burn per treatment group was used for statistical analysis depending on the normality of data distribution; P≦0.05 was considered significant.

FGFR = assay: Kinase inhibition profile, related RTK; assay type: biochemical; details: ATP concentration of 1 nM
rat OIR model = assay: Preretinal neovascularization, rat OIR model, oral gavage; assay type: in vivo, Sprague-Dawley rats; details: for % Inhibition (vs vehicle-injected eye): preretinal NV
Experimental: (§1) Immediately following euthanasia, retinas from all rat pups were harvested, fixed in 10% neutral buffered formalin for 24 hours, subjected to ADPase staining, and fixed onto slides as whole mounts. Digital images were acquired from each retinal flat mount that was adequately prepared. Computerized image analysis was used to obtain a NV clockhour score from each readable sample. Each clockhour out of 12 total per retina was assessed for the presence or absence of preretinal NV. Statistical comparisons using median scores for NV clockhours from each treatment group were utilized in nonparametric analyses. Each noninjected pup represented one NV score by taking the average value of both eyes and was used in comparisons against each dosage group. Because the pups were randomly assigned and no difference was observed between oxygen-exposed control pups from all litters, the NV scores were combined for all treatment groups. P≦0.05 was considered statistically significant.
METHODS: Pregnant Sprague-Dawley rats were received at 14 days gestation and subsequently gave birth on Day 22±1 of gestation. Immediately following parturition, pups were pooled and randomized into separate litters (n=17 pups/litter), placed into separate shoebox cages inside oxygen delivery chamber, and subjected to an oxygen-exposure profile from Day 0 to Day 14 postpartum. Litters were then placed into room air from Day 14/0 through Day 14/6 (days 14-20 postpartum). Additionally on Day 14/0, each pup was randomly assigned as oxygen-exposed controls, vehicle treated, or drug-treated at 1.5, 5, 10 mg/kg, p.o., BID. At Day 14/6 (20 days postpartum), all animals in both studies were euthanized and retina whole mounts were prepared as described in Example 1 above.

[2] = tested on: rat model of oxygen-induced retinopathy; assay: Preretinal neovascularization, rat OIR model, intravitreal injection; assay type: in vivo, Sprague-Dawley rats; details: for % Inhibition (vs. vehicle-injected eye) / Median NV / NV Range: 5 μl intravitreal; for % Inhibition (vs. vehicle-injected eye): preretinal NV; for Median NV / NV Range: NV clockhour score
Description: METHODS: Pregnant Sprague-Dawley rats were received at 14 days gestation and subsequently gave birth on Day 22±1 of gestation. Immediately following parturition, pups were pooled and randomized into separate litters (n=17 pups/litter), placed into separate shoebox cages inside oxygen delivery chamber, and subjected to an oxygen-exposure profile from Day 0-14 postpartum. Litters were then placed into room air from Day 14/0 through Day 14/6 (days 14-20 postpartum). Additionally on Day 14/0, each pup was randomly assigned as an oxygen-exposed control or into various treatment groups. […] At Day 14/6 (20 days postpartum), all animals in both studies were euthanized.
as §1

[3] = Pilot intraocular safety study, single intravitreal injection, adult rat; assay type: in vivo; details: single intravitreal injection of 0.1 and 1.0%, up to 1 month postinjection
Description: Outcome measures were followed up to 1 month postinjection and involved clinical (fundus photography & indirect ophthalmoscopy), functional (electroretinography), and morphologic (histopathology) methods.

INSR = INSR (Homo sapiens, UniProt P06213); assay: Kinase inhibition profile, non-related TK; assay type: biochemical; details: ATP concentration of 1 nM
INSR, sequence (P06213 28-1382): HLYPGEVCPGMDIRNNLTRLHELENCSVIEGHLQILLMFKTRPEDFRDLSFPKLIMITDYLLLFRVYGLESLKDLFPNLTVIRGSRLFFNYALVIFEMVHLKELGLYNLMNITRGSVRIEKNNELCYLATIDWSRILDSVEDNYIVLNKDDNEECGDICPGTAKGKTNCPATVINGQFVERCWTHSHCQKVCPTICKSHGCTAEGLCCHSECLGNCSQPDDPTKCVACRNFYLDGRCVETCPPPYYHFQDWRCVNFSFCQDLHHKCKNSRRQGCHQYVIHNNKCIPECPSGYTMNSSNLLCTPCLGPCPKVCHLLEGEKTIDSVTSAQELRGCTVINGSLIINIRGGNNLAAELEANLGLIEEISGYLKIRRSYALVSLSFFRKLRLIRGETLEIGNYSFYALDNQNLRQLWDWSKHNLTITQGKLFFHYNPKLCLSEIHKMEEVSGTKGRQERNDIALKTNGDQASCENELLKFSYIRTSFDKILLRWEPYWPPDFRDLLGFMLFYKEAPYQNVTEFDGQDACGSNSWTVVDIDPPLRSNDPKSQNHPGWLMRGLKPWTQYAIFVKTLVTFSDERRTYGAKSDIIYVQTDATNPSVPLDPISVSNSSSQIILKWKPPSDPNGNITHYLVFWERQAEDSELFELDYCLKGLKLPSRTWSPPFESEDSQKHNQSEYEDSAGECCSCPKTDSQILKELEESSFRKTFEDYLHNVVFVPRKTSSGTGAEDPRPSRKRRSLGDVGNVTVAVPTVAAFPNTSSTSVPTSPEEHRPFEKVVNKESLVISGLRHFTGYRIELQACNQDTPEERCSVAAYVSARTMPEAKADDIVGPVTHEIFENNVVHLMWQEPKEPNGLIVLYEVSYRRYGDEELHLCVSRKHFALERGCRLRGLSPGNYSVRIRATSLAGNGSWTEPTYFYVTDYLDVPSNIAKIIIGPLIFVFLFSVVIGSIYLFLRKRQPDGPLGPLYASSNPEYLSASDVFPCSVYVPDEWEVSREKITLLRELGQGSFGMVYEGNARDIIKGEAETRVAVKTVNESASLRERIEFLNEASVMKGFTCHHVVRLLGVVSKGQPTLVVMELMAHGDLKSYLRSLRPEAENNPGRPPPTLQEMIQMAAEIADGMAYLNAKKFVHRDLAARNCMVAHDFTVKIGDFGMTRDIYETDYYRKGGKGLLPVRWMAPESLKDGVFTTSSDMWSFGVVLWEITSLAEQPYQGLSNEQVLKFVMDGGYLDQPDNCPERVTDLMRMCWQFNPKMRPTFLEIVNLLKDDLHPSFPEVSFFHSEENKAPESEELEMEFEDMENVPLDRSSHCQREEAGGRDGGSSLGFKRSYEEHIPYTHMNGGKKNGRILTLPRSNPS

Compound: Cc1ccc(F)c(NC(=O)Nc2ccc(-c3cccc4[nH]nc(N)c34)cc2)c1 [AL-39324, N-[4-[3-amino-1H-indazol-4-yl)phenyl]-N′-(2-fluoro-5-methylphenyl)urea]
- CNV versus vehicle injected eyes ([1]; 0.3%, 5 ul intravitreal): marginal statistical difference
- mean±s.d. CNV area/burn per mouse ([1]; 0.3%, 5 ul intravitreal): 44283±28886 um^2
- median CNV area/burn per mouse ([1]; 0.3%, 5 ul intravitreal): 38891 um^2
- mean±s.d. CNV area/burn per mouse ([1]; 1%, 5 ul intravitreal): 21036±3100 um^2
- median CNV area/burn per mouse ([1]; 1%, 5 ul intravitreal): 21122 um^2
- inhibition of CNV as compared to vehicle-injected eyes ([1]; 1%): 84.1%
- mean±s.d. CNV area/burn per mouse ([1]; 3%, 5 ul intravitreal): 27288±12109 um^2
- median CNV area/burn per mouse ([1]; 3%, 5 ul intravitreal): 22665 um^2
- inhibition of CNV as compared to vehicle-injected eyes ([1]; 3%): 83.0%
- IC50 (FGFR): > 12.5 µM
- Median NV (rat OIR model; 3 mg/kg in PEG 400, p.o.): 7.5
- NV Range (rat OIR model; 3 mg/kg in PEG 400, p.o.): 3.8-9.8
- % Inhibition (vs vehicle-injected eye) (rat OIR model; 3 mg/kg in PEG 400, p.o. (per day, BID)): −1.4%
- decrease in NV (rat OIR model; 3 mg/kg/day p.o.): did not have a significant decrease in NV
- Median NV (rat OIR model; 10 mg/kg in PEG 400, p.o.): 1.105
- NV Range (rat OIR model; 10 mg/kg in PEG 400, p.o.): 0-8
- % Inhibition (vs vehicle-injected eye) (rat OIR model; 10 mg/kg in PEG 400, p.o. (per day, BID)): 86.4%
- Median NV (rat OIR model; 20 mg/kg in PEG 400, p.o.): 0
- NV Range (rat OIR model; 20 mg/kg in PEG 400, p.o.): 0
- % Inhibition (vs vehicle-injected eye) (rat OIR model; 20 mg/kg in PEG 400, p.o. (per day, BID)): 100%
- inhibition of preretinal NV (rat OIR model; 20 mg/kg/day p.o.): complete inhibition of preretinal NV
- efficacy against preretinal NV ([2]; 0.1% treated eyes): Efficacy was not observed
- % Inhibition (vs. vehicle-injected eye) ([2]; 0.1%): 37%
- Median NV ([2]; 0.1%): 2.835
- NV Range ([2]; 0.1%): 1.1-5.3
- % Inhibition (vs. vehicle-injected eye) ([2]; 0.3%): 100%
- Median NV ([2]; 0.3%): 0
- NV Range ([2]; 0.3%): 0-5
- % Inhibition (vs. vehicle-injected eye) ([2]; 0.6%): 100%
- Median NV ([2]; 0.6%): 0
- NV Range ([2]; 0.6%): 0-1.1
- % Inhibition (vs. vehicle-injected eye) ([2]; 1%): 100%
- Median NV ([2]; 1%): 0
- NV Range ([2]; 1%): 0-2
- inhibition of preretinal NV ([2]; between 0.3%-1% suspensions, intravitreal): 100%
- adverse events (fundus, electroretinography, histopathology) [3]: No significant adverse events
- IC50 (INSR): > 50 µM
